# Structures can show the parent of a compound that is named as a salt.
# What was measured:
# [1] = Physical stability of Form 1 in excipient mixtures and tablets at 50° C./75% RH, PXRD; assay type: physicochemical; details: for Output Solid Form: 1 week
# Experimental: Binary and tertiary mixtures of Form 1 with various excipients were stored at 50° C./75% RH and solid form changes were monitored using PXRD.
# [2] = Physical stability of Form 1 drug product vs. acetic acid solvate drug product
# Description: The physical stabilities of Form 1 and lorlatinib acetic acid solvate as drug product were investigated under a variety of conditions.
# [3] = Slurry experiments, thermodynamic stability of anhydrous lorlatinib maleate (Form 1); assay type: physicochemical; details: 2 weeks
# [4] = Physical stability of Form 1 in excipient mixtures and tablets at 50° C./75% RH, PXRD; assay type: physicochemical; details: 2 weeks
# [5] = Solid-state physical stability of Form 1 API at temperature/% RH, form checked by PXRD; assay type: physicochemical; details: for Solid Form (accelerated stability, PXRD): API
# Description: The physical stability of anhydrous lorlatinib maleate (Form 1) API was investigated at a variety of temperatures and percent relative humidities (% RH). […]
# [6] = Slurry experiments, thermodynamic stability of anhydrous lorlatinib maleate (Form 1); assay type: physicochemical
# Experimental: The thermodynamic stability of anhydrous lorlatinib maleate (Form 1) and lorlatinib maleate hydrate (Form 2) was evaluated employing slurry experiments under a range of water activity and temperature conditions. Suspensions of Form 1 were equilibrated for two weeks in acetonitrile/water and methanol/water solvent systems with water activities (Aw) in the range of 0.1 to 0.9, at three different temperatures: 5° C., room temperature and 40° C. After 2 weeks, the solids in equilibrium were isolated and solid form was evaluated by PXRD.
# Even a minimal amount of water (Aw=0.1) was sufficient to cause conversion of Form 1 to Form 2.
structure (smiles),measurement,setting,value
"C[C@H]1Oc2cc(cnc2N)-c2c(nn(C)c2C#N)CN(C)C(=O)c2ccc(F)cc21 [anhydrous lorlatinib maleate (Form 1), Anhydrous (10R)-7-amino-12-fluoro-2,10,16-trimethyl-15-oxo-10,15,16,17-tetrahydro-2H-8,4-(metheno)pyrazolo[4,3-h][2,5,11]benzoxadiazacyclotetradecine-3-carbonitrile (PF-06463922) Maleate (Form 1)]",Output Solid Form,[1]; binary mixture with stearic acid,Form 2
same,Solid form changes by PXRD (summary),[1]; mixtures containing magnesium stearate,form changes after 2 weeks
same,Solid form changes by PXRD (summary),[1]; mixtures containing stearic acid,form changes after 1 week
same,Output Solid Form,"[1]; tertiary mixture with stearic acid, lactose",Form 2
same,Output Solid Form,"[1]; tertiary mixture with stearic acid, mannitol",Form 2
same,Physical stability of representative drug product formulation relative to the acetic acid solvate of lorlatinib free base,[2]; drug product formulation,superior physical stability
same,"impurity (solid phase impurity), physical stability of drug product","[2]; 50° C./75% RH, 2 weeks",~10% impurity
same,"impurity (solid phase impurity), physical stability of drug product","[2]; 70° C./10% RH, 3 weeks",~10% impurity
same,"impurity (solid phase impurity), physical stability of drug product","[2]; 70° C./40% RH, 2 weeks",~10% impurity
same,"impurity (solid phase impurity), physical stability of drug product","[2]; 70° C./75% RH, 1 week",~10% impurity
same,"Slurry output, solid form by PXRD","[3]; acetonitrile, Aw 0, RT",Form 1
same,"Slurry output, solid form by PXRD","[3]; methanol, Aw 0, 40° C.",Form 1
same,Output Solid Form,"[4]; tablet with DCP, magnesium stearate, Explotab",Form 1
same,Output Solid Form,"[4]; tablet with DCP, magnesium stearate, Polyplasdone XL",Form 1
same,Output Solid Form,"[4]; tablet with DCP, stearic acid, Explotab",Form 1
same,Output Solid Form,"[4]; tablet with DCP, stearic acid, Polyplasdone XL",Form 1
same,Output Solid Form,"[4]; tablet with mannitol, stearic acid, Polyplasdone XL",Form 1
same,Stability with respect to lorlatinib maleate hydrate (Form 2),[5],meta-stable
same,"Solid Form (accelerated stability, PXRD)","[5]; 25° C./60% RH without desiccation, 3 months","Multiple new PXRD peaks were observed, which were consistent with Form 2"
same,"Solid Form (accelerated stability, PXRD)","[5]; 40° C./75% RH without desiccation, 3 months",nearly complete conversion to Form 2
same,"Solid Form (accelerated stability, PXRD)","[5]; 75% RH, ambient temperature, 6 months, listed as Form 1",full conversion to Form 2
same,"Solid Form (accelerated stability, PXRD)","[5]; 75% RH, ambient temperature, 6 months, listed as anhydrous lorlatinib maleate Form 1",Form 2
same,"Solid Form (accelerated stability, PXRD)","[5]; 90% RH, ambient temperature, 6 months, listed as Form 1",full conversion to Form 2
same,"Solid Form (accelerated stability, PXRD)","[5]; 90% RH, ambient temperature, 6 months, listed as anhydrous lorlatinib maleate Form 1",Form 2
same,"Slurry output, solid form by PXRD","[6]; acetonitrile, Aw 0, 5° C., 2 weeks",Form 1
same,"Slurry output, solid form by PXRD","[6]; acetonitrile, Aw 0, 40° C., 2 weeks",Form 1
same,"Slurry output, solid form by PXRD","[6]; acetonitrile/water, Aw 0.1, 5° C., 2 weeks",Form 2
same,"Slurry output, solid form by PXRD","[6]; acetonitrile/water, Aw 0.1, 40° C., 2 weeks",Form 2
same,"Slurry output, solid form by PXRD","[6]; acetonitrile/water, Aw 0.1, RT, 2 weeks",Form 2
same,"Slurry output, solid form by PXRD","[6]; acetonitrile/water, Aw 0.3, 5° C., 2 weeks",Form 2
same,"Slurry output, solid form by PXRD","[6]; acetonitrile/water, Aw 0.3, 40° C., 2 weeks",Form 2
same,"Slurry output, solid form by PXRD","[6]; acetonitrile/water, Aw 0.3, RT, 2 weeks",Form 2
same,"Slurry output, solid form by PXRD","[6]; acetonitrile/water, Aw 0.5, 5° C., 2 weeks",Form 2
same,"Slurry output, solid form by PXRD","[6]; acetonitrile/water, Aw 0.5, 40° C., 2 weeks",Form 2
same,"Slurry output, solid form by PXRD","[6]; acetonitrile/water, Aw 0.5, RT, 2 weeks",Form 2
same,"Slurry output, solid form by PXRD","[6]; acetonitrile/water, Aw 0.75, 5° C., 2 weeks",Form 2
same,"Slurry output, solid form by PXRD","[6]; acetonitrile/water, Aw 0.75, 40° C., 2 weeks",Form 2
same,"Slurry output, solid form by PXRD","[6]; acetonitrile/water, Aw 0.75, RT, 2 weeks",Form 2
same,"Slurry output, solid form by PXRD","[6]; acetonitrile/water, Aw 0.9, 5° C., 2 weeks",Form 2
same,"Slurry output, solid form by PXRD","[6]; acetonitrile/water, Aw 0.9, 40° C., 2 weeks",Form 2
same,"Slurry output, solid form by PXRD","[6]; acetonitrile/water, Aw 0.9, RT, 2 weeks",Form 2
same,Form conversion in slurry (summary),[6]; anhydrous conditions (Aw=0),no conversion to the hydrate Form 2 detected
same,"Slurry output, solid form by PXRD","[6]; methanol, Aw 0, 5° C., 2 weeks",Form 1
same,"Slurry output, solid form by PXRD","[6]; methanol, Aw 0, RT, 2 weeks",Form 1
same,"Slurry output, solid form by PXRD","[6]; methanol/water, Aw 0.1, 5° C., 2 weeks",Form 2
same,"Slurry output, solid form by PXRD","[6]; methanol/water, Aw 0.1, 40° C., 2 weeks",solvate
same,"Slurry output, solid form by PXRD","[6]; methanol/water, Aw 0.1, 40° C., 2 weeks, listed as Form 1",solvated material
same,"Slurry output, solid form by PXRD","[6]; methanol/water, Aw 0.1, RT, 2 weeks",Form 2
same,"Slurry output, solid form by PXRD","[6]; methanol/water, Aw 0.3, 5° C., 2 weeks",Form 2
same,"Slurry output, solid form by PXRD","[6]; methanol/water, Aw 0.3, 40° C., 2 weeks",solvate
same,"Slurry output, solid form by PXRD","[6]; methanol/water, Aw 0.3, 40° C., 2 weeks, listed as Form 1",solvated material
same,"Slurry output, solid form by PXRD","[6]; methanol/water, Aw 0.3, RT, 2 weeks",Form 2
same,"Slurry output, solid form by PXRD","[6]; methanol/water, Aw 0.5, 5° C., 2 weeks",Form 2
same,"Slurry output, solid form by PXRD","[6]; methanol/water, Aw 0.5, 40° C., 2 weeks",Form 2
same,"Slurry output, solid form by PXRD","[6]; methanol/water, Aw 0.5, RT, 2 weeks",Form 2
same,"Slurry output, solid form by PXRD","[6]; methanol/water, Aw 0.75, 5° C., 2 weeks",Form 2
same,"Slurry output, solid form by PXRD","[6]; methanol/water, Aw 0.75, 40° C., 2 weeks",Form 2
same,"Slurry output, solid form by PXRD","[6]; methanol/water, Aw 0.75, RT, 2 weeks",Form 2
same,"Slurry output, solid form by PXRD","[6]; methanol/water, Aw 0.9, 5° C., 2 weeks",Form 2
same,"Slurry output, solid form by PXRD","[6]; methanol/water, Aw 0.9, 40° C., 2 weeks",Form 2
same,"Slurry output, solid form by PXRD","[6]; methanol/water, Aw 0.9, RT, 2 weeks",Form 2
same,Form conversion in slurry (summary),"[6]; water activities 0.1 to 0.9, temperatures from 5° C. to 40° C., 2 weeks",converts to the thermodynamically more stable lorlatinib maleate hydrate (Form 2)
